Laboratory results taken from ChEMBL document CHEMBL3988442, “University of Dundee, Small-Polar-MMV Screening Library” (2021).

Assay: In vitro enzyme assay to detect hydrolysis of chlorophenol red-beta-D-[…] directly proportional to the number of Toxoplasma stably expressing beta-galactosidase
Assay type: functional, organism-based, Toxoplasma gondii
Details: for IC50: Toxoplasma gondii

CCc1cnc(CNC)s1
IC50: > 50.1 µM

Cc1ccc(C(=O)N2CCN(c3nccn3C)CC2)o1
IC50: > 50.1 µM

Cc1ocnc1C(=O)Nc1ccc2c(c1)NCCC2
IC50: > 50.1 µM

CC(=O)NCCCS(=O)(=O)c1ncccc1Cl
IC50: > 50.1 µM

CC(c1cccs1)n1nccc1N (stereo unspecified)
IC50: > 50.1 µM

COc1cc2nc(NCc3scnc3C)nc(N)c2cc1OC
IC50: 15.6 µM

CC(C)(CO)NCC(O)c1cccc(Cl)c1 (stereo unspecified)
IC50: > 50.1 µM

O=C(c1cc(=O)[nH][nH]1)N1CCCC2(CCC(=O)N(C3CCCC3)C2)C1 (stereo unspecified)
IC50: > 50.1 µM

CC(C(=O)Nc1sccc1C(N)=O)N(C)CCOc1ccccc1 (stereo unspecified)
pIC50: 5.826
IC50: 2.24 µM

Cc1ccc(Cl)cc1NC(=O)CN1CCNC(=O)C1
IC50: > 50.1 µM

CCN(CC(C)C#N)C(=O)c1ccc(Br)o1 (stereo unspecified)
IC50: > 50.1 µM

Cn1nnnc1SCCNC(=O)c1cc(Cl)ccc1F
IC50: > 50.1 µM

OC(CNC1CCSCC1)c1cccc(OCc2ccccc2)c1 (stereo unspecified)
IC50: 17.2 µM

CCn1nc(C)c2nc(C(C)C)nc(NCCc3ccc(O)cc3)c21
pIC50: 4.521
IC50: 22.2 µM

CC(=O)c1ccc(OCC(O)Cn2ccnc2)cc1 (stereo unspecified)
IC50: > 50.1 µM

CCC1=NC(SCC(=O)c2ccccc2)c2cc(CC)sc2N1 (stereo unspecified)
IC50: 14.9 µM

N[C@@H]1CC[C@H](C(=O)NCc2csc(N3CCCC3)n2)C1
IC50: > 50.1 µM

O=C(c1cnsn1)N1CCN(C2CC2)C(=O)C1
IC50: > 50.1 µM

O=C(NCc1nc(C2CC2)no1)Nc1nncs1
IC50: > 50.1 µM

COc1ccc(C2CCCN2c2ccnc(C)c2Cl)c(OC)c1 (stereo unspecified)
IC50: 14 µM

Cc1cccc(Cn2cc(Br)c(NS(C)(=O)=O)n2)c1
IC50: > 50.1 µM

CCn1cc(CN(C)S(=O)(=O)c2ccccc2)cn1
IC50: > 50.1 µM

CN[C@@H]1COc2ccccc2[C@H](O)C1
IC50: > 50.1 µM

OC[C@@H]1CCCN1Cc1ccc(F)c2cccnc12
IC50: 3.76 µM

Cc1nc(N2CCN(C(=O)c3ccncc3)CC2)c2c(n1)c(C)nn2C
IC50: > 50.1 µM

O=C1c2ccc(F)cc2C(=O)N1Cc1nnsc1Cl
IC50: > 50.1 µM

CCC(=O)c1nccn1C
IC50: > 50.1 µM

CCNS(=O)(=O)c1csc(C(=O)Nc2cc(C)on2)c1
IC50: > 50.1 µM

O=C(NCc1ccc2c(c1)OCO2)n1ccnc1
IC50: > 50.1 µM

c1cnc(-c2nn3c(CN4CCOCC4)nnc3s2)cn1
IC50: > 50.1 µM

CC(C)(C)OC(=O)NCC1CC(C(N)=O)=NO1 (stereo unspecified)
IC50: > 50.1 µM

CCn1c(NCc2ccccc2)nc2c(C)nn(C)c2c1=O
pIC50: 4.457
IC50: 22.7 µM

CNc1cc(-c2cccc(OC)c2OC)nc(N)n1
IC50: > 50.1 µM

Cc1nn(C)c2c(=O)n(Cc3ccccc3)nnc12
IC50: > 50.1 µM

Cn1ncc(C(=O)N2CCN(CCS(C)(=O)=O)CC2)c1Cl
IC50: > 50.1 µM

N#Cc1c(Cl)nsc1NCc1cccnc1OC1CCCC1
pIC50: 5.095
IC50: 6.71 µM

COCc1nn(CC(=O)c2cc(F)ccc2F)c(=O)o1
IC50: > 50.1 µM

N#Cc1ccc(-n2nccc2N)cc1
IC50: 13.6 µM

NCCc1cc(C(F)(F)F)ccn1
IC50: > 50.1 µM

CCc1nnc(Nc2cc(C)nc(C3CCN(c4ccncn4)C3)n2)s1 (stereo unspecified)
IC50: > 50.1 µM

CC(C)CSc1nnc(CN2CCCC2=O)o1
IC50: > 50.1 µM

COc1ccc(CCNC(=O)NCCCC(N)=O)cc1
IC50: > 50.1 µM

COc1ccc(NCC(=O)N2CCNC(=O)C2)c(C)c1
IC50: > 50.1 µM

Cc1nn(C)c(C)c1CNC(=O)c1cc(NC(=O)C2CC2)n(C)n1
IC50: > 50.1 µM

COc1c(CNC2(c3noc(C)n3)CCC2)c(C)nn1C
IC50: > 50.1 µM

O=C(c1cccnc1)c1ncc[nH]1
IC50: > 50.1 µM

COc1ccc(C2=NOC(C(=O)N3CCCc4ccccc43)C2)cc1 (stereo unspecified)
IC50: 27.9 µM

CCCn1c(NCCc2ccccc2)nc2c(C)nn(C)c2c1=O
IC50: 31.5 µM

CN(C)[C@@H]1CN(C(=O)c2ccccc2Br)C[C@H]1CO
IC50: > 50.1 µM

CCNC1CCS(=O)(=O)C1 (stereo unspecified)
IC50: > 50.1 µM

Cc1ccc([C@]2(O)CC[C@H]3CN(Cc4cccc(Cl)c4Cl)C[C@H]32)nc1
IC50: 8.76 µM

Cc1ccnc(NC(=O)N(C)Cc2ccncc2)c1
IC50: > 50.1 µM

CCN1CC2(CC1=O)CN(Cc1ccncc1)CCN(C(=O)C(C)C)C2 (stereo unspecified)
IC50: > 50.1 µM

Cc1cc(-c2nc(C3CCOC3)no2)n(C)n1 (stereo unspecified)
IC50: > 50.1 µM

O=C(NCCC1=CCCCC1)c1cc(-c2ccc(O)cc2)n[nH]1
IC50: 0.391 µM

CCCc1nc(NCCCOCC)c2c(n1)c(C)nn2CC
IC50: > 50.1 µM

CC(=O)N1CCN(c2ncnc3cc4c(cc23)OCCO4)CC1
IC50: > 50.1 µM

CN1CCC(NC(=O)c2cc3ccccc3s2)C1=O (stereo unspecified)
IC50: > 50.1 µM

CCOc1ncccc1C(=O)NCC(C)N1CCCC1 (stereo unspecified)
IC50: > 50.1 µM

N#Cc1c(Cl)nsc1NCC1(c2ccccc2)CCC1
IC50: 5.72 µM

CCc1cnc(N2CCCC(CCC(N)=O)C2)nc1 (stereo unspecified)
IC50: > 50.1 µM

CCN1C[C@H](NC(=O)c2snnc2C(C)C)[C@@H](OC)C1
IC50: > 50.1 µM

COCCN(CCOC)CC(=O)N(C)C
IC50: > 50.1 µM

Cn1ncc(C(=O)N2CCN(S(C)(=O)=O)CC2)c1Cl
IC50: > 25.1 µM

Cc1nc(N2CCN(c3ccccc3)CC2)c2c(n1)c(C)nn2C
IC50: > 50.1 µM

Cc1ccc(CN2CCC(C3CCNC3)CC2)nc1 (stereo unspecified)
IC50: > 50.1 µM

CCCc1nc(NCCCn2ccnc2)c2c(n1)c(C)nn2CC
IC50: > 50.1 µM

CNCc1ccc(N)nc1
IC50: > 50.1 µM

CCc1nc2ccccc2c(=O)n1CC1(O)CCN(C(=O)COC)CC1
IC50: > 50.1 µM

O=C(NCCc1ncc[nH]1)c1cccnc1SC(F)F
IC50: > 50.1 µM

CN1CCCN(C(=O)COc2ccc(Br)cc2)CC1
IC50: > 50.1 µM

CC(C)CNC(=O)CSc1n[nH]c(-c2ccccn2)n1
IC50: > 50.1 µM

Cc1ocnc1CNC(=O)c1ccon1
IC50: > 50.1 µM

Cc1ccc(CNC(=O)c2cc(C)n(C)n2)o1
IC50: > 50.1 µM

CC(=O)c1cccc(OCC(=O)Nc2cc(C)on2)c1
IC50: > 50.1 µM

CO[C@H]1CC[C@H]2[C@H]1OCCN2Cc1ccc(F)c(F)c1
IC50: > 50.1 µM

CCN(CC)Cc1nnnn1-c1ccccc1
IC50: > 50.1 µM

Cc1nc([C@H]2CCCN2)cs1
IC50: > 50.1 µM

CCc1ccc(CN(CCO)Cc2nccn2C)nc1
IC50: > 50.1 µM

Cc1cccc(OCc2ccc(C(=O)N3N=CCC3(O)C(F)(F)F)o2)c1 (stereo unspecified)
pIC50: 5.353
IC50: 3.87 µM

CC(C)CC(=O)N1CC[C@H]2N(C)CC[C@@]2(C(=O)Nc2ccccc2)CC1
IC50: > 50.1 µM

CCN1C[C@H]2CCN(C(=O)NC)CC[C@H]2S1(=O)=O
pIC50: 4.337
IC50: > 50.1 µM

CC(=O)Nc1ncc(S(=O)(=O)Nc2ccccc2F)s1
IC50: 31.2 µM

CCn1c(SCC(=O)O)nnc1C(C)NC(=O)c1ccc(Cl)cc1 (stereo unspecified)
IC50: > 50.1 µM

CN(C(=O)NCCCN1CCCC1)C1CCN(c2ccccc2)C1=O (stereo unspecified)
IC50: > 50.1 µM

CNC(=O)C1(N(C)CCc2ccccc2)Cc2ccccc2C1
IC50: 11.3 µM

CN(CCNS(C)(=O)=O)CCSc1ccccc1
IC50: > 50.1 µM

CCn1cc(NC(=O)c2cc(C)nc(N3CCOCC3)n2)cn1
IC50: > 25.1 µM

COC(=O)CC(C1=Cc2ccccc2OC1)c1oc(C)cc(=O)c1O (stereo unspecified)
pIC50: 4.537
IC50: > 50.1 µM

COC(=O)c1ccc(NS(=O)(=O)c2cnc(NC(C)=O)s2)cc1
IC50: > 50.1 µM

CCNc1ncc2c(n1)CN(c1cccc(OC)c1)C2=O
IC50: > 50.1 µM

Cc1cnc(N2CC[C@H]3[C@@H]2CCC(=O)N3c2ccccc2)nc1.O=C(O)C(F)(F)F
pIC50: 4.34
IC50: > 50.1 µM

CCn1c(NCc2ccc(OC)cc2)nc2c(C)nn(C)c2c1=O
IC50: > 50.1 µM

CCC(=O)N1CCN(c2ncnc3cc4c(cc23)OCCO4)CC1
IC50: > 50.1 µM

CC(C)(CO)C(N)c1ccccc1 (stereo unspecified)
IC50: > 50.1 µM

Cc1c(NC(=O)c2ccc(Br)cc2)c(C(=O)N(C)C)nn1C
IC50: > 50.1 µM

O=C(Nc1ccc(Br)cn1)C1CCCNC1 (stereo unspecified)
IC50: > 50.1 µM

CCc1ccccc1NC(=O)C1=NN(C)C(=O)CC1
IC50: > 50.1 µM

CCNc1ncc2c(n1)CN(c1ccc(Cl)cc1)C2=O
IC50: > 50.1 µM

CCOc1ccc(C(=O)N2CCC(N)CC2)cc1
IC50: > 50.1 µM

CS(=O)(=O)c1ccc(-c2cc(O)cc(CCC3CCCCN3)c2)cc1 (stereo unspecified)
IC50: 16.6 µM

NC(=O)C(Cc1ccccc1)NS(=O)(=O)Cc1ccccc1Cl (stereo unspecified)
IC50: > 50.1 µM

CCc1nc(Nc2ccc(C(=O)NC)cc2)c2c(n1)c(C)nn2CC
pIC50: < 4.3
IC50: 37.2 µM

CCn1nc(C)c2nc(C(C)C)nc(NCCCn3cccn3)c21
IC50: 35.2 µM

Cc1c(S(=O)(=O)N2CCOCC2)cc2c(C)cc(=O)n3c2c1CCC3
IC50: > 50.1 µM

COc1ccccc1NC(=O)CC#N
IC50: > 50.1 µM

O=C(N1CCOCC1)[C@@]12CCO[C@@H]1CCN(C1CCC1)C2
IC50: > 50.1 µM

CNC(=O)NCc1cccnc1OC1CCCC1
IC50: > 50.1 µM

CCc1cc(N2CCC(NCCc3ccccc3F)CC2)nc(C)n1
pIC50: 4.968
IC50: 8.65 µM

N#Cc1ccccc1NC(=O)CCN1CCCC(O)C1 (stereo unspecified)
IC50: > 50.1 µM

Cc1[nH]c2ccccc2c1-c1ccnc(N[C@@H](C)CO)n1
IC50: 43.3 µM

Cc1cccc(CN2CCc3nnc(CN4CCCCC4)n3CC2)n1
IC50: > 50.1 µM

CNc1ncc2c(n1)CN(c1cccc(OC)c1)C2=O
IC50: > 50.1 µM

Cc1nn(C)c2c(=O)n(C(C)C)c(NCCc3ccccc3)nc12
IC50: 36.1 µM

COCCN(Cc1ccccc1Cl)c1nc(CCN)nc2ccccc12
IC50: 13 µM

c1nc(N2CCNCC2)c2sccc2n1
IC50: > 50.1 µM

COC(C)CCC(=O)NCc1cn2ccccc2n1 (stereo unspecified)
IC50: > 50.1 µM

CC(=O)Nc1ncc(S(=O)(=O)Nc2cccc(C)c2)s1
IC50: > 50.1 µM

CCC(CC)(CCO)CNC(=O)c1cncc(C)c1
IC50: > 50.1 µM

CNC(=O)NC(=O)CCN1CCCC(C)C1 (stereo unspecified)
IC50: > 50.1 µM

O=C1CN(CC(=O)Nc2c(Cl)cccc2Cl)CCN1
IC50: > 50.1 µM

O=C(COc1ccc2c(c1)CCC2)NCc1ccco1
IC50: 35.5 µM

Cc1c(CC(=O)N2CCN(C(C)C)CC2)nnn1-c1ccccc1
IC50: > 50.1 µM

c1cc(SCCOCC2CCCO2)ccn1 (stereo unspecified)
IC50: > 50.1 µM

Cc1nn(C)c2c(=O)n(Cc3ccc(Cl)cc3)nnc12
IC50: > 50.1 µM

NCCC(=O)Nc1ccccc1
IC50: > 50.1 µM

CC(C)C(=O)N1CCN(c2ncnc3cc4c(cc23)OCCO4)CC1
IC50: > 50.1 µM

CNc1ncc(C(=O)N2CCCC(Cc3ccccc3OC)C2)s1 (stereo unspecified)
IC50: 45.9 µM

CCNC(C)(C)C(=O)N(C)Cc1ccc(OC)c(F)c1
IC50: > 50.1 µM

COCCNc1cc(C)nn2cnnc12
IC50: > 50.1 µM

O=C(NCCN1CCOCC1)c1cc(-c2ccc(Cl)s2)[nH]n1
IC50: 5.29 µM
